# System: A375 multi-cell spheroids with HUVEC/MSC, viability
# Assay: Anticancer human tumor A375 cell line growth inhibition [GQUAD];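 further: spheroids exposed to compounds for seven days before readout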
# Conditions: for IC50: curve of first compound; for viability, T/C: stronger effect = lower value
# Method in brief: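 Multi-cell-type spheroids of tumor cells with HUVEC and mesenchymal stem cells, treated with drug combinations. Concentrations descend in half-log steps from near clinical Cmax, or from 10 microM where Cmax is unknown; viability read-out.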
# [1] = second compound 0.0316 µM, first compound 0.0316 µM
# [2] = second compound 0.0316 µM, first compound 0.1 µM
# [3] = second compound 0.0316 µM, first compound 0.316 µM
# [4] = second compound 0.0316 µM, first compound 1 µM
# [5] = second compound 0.0316 µM, first compound 3.16 µM
# [6] = second compound 0.0316 µM, first compound 10 µM
# [7] = second compound 0.1 µM, first compound 0.0316 µM
# [8] = second compound 0.1 µM, first compound 0.1 µM
# [9] = second compound 0.1 µM, first compound 0.316 µM
# [10] = second compound 0.1 µM, first compound 1 µM
# [11] = second compound 0.1 µM, first compound 3.16 µM
# [12] = second compound 0.1 µM, first compound 10 µM
# [13] = second compound 0.316 µM, first compound 0.0316 µM
# [14] = second compound 0.316 µM, first compound 0.1 µM
# [15] = second compound 0.316 µM, first compound 0.316 µM
# [16] = second compound 0.316 µM, first compound 1 µM
# [17] = second compound 0.316 µM, first compound 3.16 µM
# [18] = second compound 0.316 µM, first compound 10 µM
# [19] = second compound 1 µM, first compound 0.0316 µM
# [20] = second compound 1 µM, first compound 0.1 µM
# [21] = second compound 1 µM, first compound 0.316 µM
# [22] = second compound 1 µM, first compound 1 µM
# [23] = second compound 1 µM, first compound 3.16 µM
# [24] = second compound 1 µM, first compound 10 µM
# [25] = second compound 3.16 µM, first compound 0.0316 µM
# [26] = second compound 3.16 µM, first compound 0.1 µM
# [27] = second compound 3.16 µM, first compound 0.316 µM
# [28] = second compound 3.16 µM, first compound 1 µM
# [29] = second compound 3.16 µM, first compound 3.16 µM
# [30] = second compound 3.16 µM, first compound 10 µM
# [31] = second compound 10 µM, first compound 0.0316 µM
# [32] = second compound 10 µM, first compound 0.1 µM
# [33] = second compound 10 µM, first compound 0.316 µM
# [34] = second compound 10 µM, first compound 1 µM
# [35] = second compound 10 µM, first compound 3.16 µM
# [36] = second compound 10 µM, first compound 10 µM
smiles,measurement,setting,value
C=CCn1c(=O)c2cnc(Nc3ccc(N4CCN(C)CC4)cc3)nc2n1-c1cccc(C(C)(C)O)n1 + Cc1[nH]c2ccc(F)cc2c1-c1nc2c3cccnc3c3ncccc3c2[nH]1,IC50,second compound 0.0316 µM,1040 nM
same,IC50,second compound 0.1 µM,1100 nM
same,IC50,second compound 0.316 µM,968 nM
same,IC50,second compound 1 µM,703 nM
same,IC50,second compound 3.16 µM,72.2 nM
same,IC50,second compound 10 µM,149 nM
same,"viability, T/C",[1],108%
same,"viability, T/C",[2],94.2%
same,"viability, T/C",[3],93.6%
same,"viability, T/C",[4],51.6%
same,"viability, T/C",[5],11.5%
same,"viability, T/C",[6],4.8%
same,"viability, T/C",[7],106%
same,"viability, T/C",[8],94.2%
same,"viability, T/C",[9],94.2%
same,"viability, T/C",[10],52.7%
same,"viability, T/C",[11],15.4%
same,"viability, T/C",[12],6.47%
same,"viability, T/C",[13],104%
same,"viability, T/C",[14],103%
same,"viability, T/C",[15],93.3%
same,"viability, T/C",[16],48.8%
same,"viability, T/C",[17],12.4%
same,"viability, T/C",[18],6.56%
same,"viability, T/C",[19],101%
same,"viability, T/C",[20],104%
same,"viability, T/C",[21],80%
same,"viability, T/C",[22],36.8%
same,"viability, T/C",[23],12.3%
same,"viability, T/C",[24],8.03%
same,"viability, T/C",[25],59.1%
same,"viability, T/C",[26],45.1%
same,"viability, T/C",[27],33.3%
same,"viability, T/C",[28],19.5%
same,"viability, T/C",[29],7.29%
same,"viability, T/C",[30],5.68%
same,"viability, T/C",[31],77.5%
same,"viability, T/C",[32],63.9%
same,"viability, T/C",[33],23.9%
same,"viability, T/C",[34],20.2%
same,"viability, T/C",[35],8.19%
same,"viability, T/C",[36],5.93%
COc1ncnc(C2CC2)c1-c1ncc2cnn(Cc3ccc(-c4nc(C(F)(F)F)cn4C(C)C)cc3)c2n1 + Cc1[nH]c2ccc(F)cc2c1-c1nc2c3cccnc3c3ncccc3c2[nH]1,IC50,second compound 0.0316 µM,> 10000 nM
same,IC50,second compound 0.1 µM,> 10000 nM
same,IC50,second compound 0.316 µM,> 10000 nM
same,IC50,second compound 1 µM,> 10000 nM
same,IC50,second compound 3.16 µM,3730 nM
same,IC50,second compound 10 µM,6580 nM
same,"viability, T/C",[1],102%
same,"viability, T/C",[2],107%
same,"viability, T/C",[3],109%
same,"viability, T/C",[4],108%
same,"viability, T/C",[5],107%
same,"viability, T/C",[6],106%
same,"viability, T/C",[7],119%
same,"viability, T/C",[8],106%
same,"viability, T/C",[9],93.8%
same,"viability, T/C",[10],112%
same,"viability, T/C",[11],107%
same,"viability, T/C",[12],123%
same,"viability, T/C",[13],104%
same,"viability, T/C",[14],104%
same,"viability, T/C",[15],108%
same,"viability, T/C",[16],106%
same,"viability, T/C",[17],112%
same,"viability, T/C",[18],108%
same,"viability, T/C",[19],104%
same,"viability, T/C",[20],106%
same,"viability, T/C",[21],99.9%
same,"viability, T/C",[22],106%
same,"viability, T/C",[23],100%
same,"viability, T/C",[24],104%
same,"viability, T/C",[25],72.2%
same,"viability, T/C",[26],72.5%
same,"viability, T/C",[27],77%
same,"viability, T/C",[28],61%
same,"viability, T/C",[29],54.1%
same,"viability, T/C",[30],34.3%
same,"viability, T/C",[31],88.9%
same,"viability, T/C",[32],92.9%
same,"viability, T/C",[33],87.2%
same,"viability, T/C",[34],79.7%
same,"viability, T/C",[35],61.3%
same,"viability, T/C",[36],43.5%
Cc1[nH]c2ccccc2c1CCNCc1ccc(/C=C/C(=O)NO)cc1 + Cc1[nH]c2ccc(F)cc2c1-c1nc2c3cccnc3c3ncccc3c2[nH]1,IC50,second compound 0.0316 µM,153 nM
same,IC50,second compound 0.1 µM,150 nM
same,IC50,second compound 0.316 µM,152 nM
same,IC50,second compound 1 µM,138 nM
same,IC50,second compound 3.16 µM,60.6 nM
same,IC50,second compound 10 µM,95.8 nM
same,"viability, T/C","second compound 0.0316 µM, first compound 0.000999 µM",102%
same,"viability, T/C","second compound 0.0316 µM, first compound 0.00316 µM",108%
same,"viability, T/C","second compound 0.0316 µM, first compound 0.00999 µM",115%
same,"viability, T/C",[1],112%
same,"viability, T/C","second compound 0.0316 µM, first compound 0.0999 µM",73.4%
same,"viability, T/C",[3],10.5%
same,"viability, T/C","second compound 0.1 µM, first compound 0.000999 µM",105%
same,"viability, T/C","second compound 0.1 µM, first compound 0.00316 µM",109%
same,"viability, T/C","second compound 0.1 µM, first compound 0.00999 µM",110%
same,"viability, T/C",[7],124%
same,"viability, T/C","second compound 0.1 µM, first compound 0.0999 µM",72%
same,"viability, T/C",[9],9.67%
same,"viability, T/C","second compound 0.316 µM, first compound 0.000999 µM",110%
same,"viability, T/C","second compound 0.316 µM, first compound 0.00316 µM",98.1%
same,"viability, T/C","second compound 0.316 µM, first compound 0.00999 µM",118%
same,"viability, T/C",[13],116%
same,"viability, T/C","second compound 0.316 µM, first compound 0.0999 µM",72.4%
same,"viability, T/C",[15],10.8%
same,"viability, T/C","second compound 1 µM, first compound 0.000999 µM",98%
same,"viability, T/C","second compound 1 µM, first compound 0.00316 µM",103%
same,"viability, T/C","second compound 1 µM, first compound 0.00999 µM",113%
same,"viability, T/C",[19],106%
same,"viability, T/C","second compound 1 µM, first compound 0.0999 µM",65.9%
same,"viability, T/C",[21],8.42%
same,"viability, T/C","second compound 3.16 µM, first compound 0.000999 µM",76.4%
same,"viability, T/C","second compound 3.16 µM, first compound 0.00316 µM",78.5%
same,"viability, T/C","second compound 3.16 µM, first compound 0.00999 µM",81.9%
same,"viability, T/C",[25],86%
same,"viability, T/C","second compound 3.16 µM, first compound 0.0999 µM",26.4%
same,"viability, T/C",[27],5.39%
same,"viability, T/C","second compound 10 µM, first compound 0.000999 µM",86%
same,"viability, T/C","second compound 10 µM, first compound 0.00316 µM",93%
same,"viability, T/C","second compound 10 µM, first compound 0.00999 µM",98.3%
same,"viability, T/C",[31],92.2%
same,"viability, T/C","second compound 10 µM, first compound 0.0999 µM",48.4%
same,"viability, T/C",[33],5.49%

# Source: PubChem BioAssay AID2060485 (Molecular Pharmacology Branch, DTP, NCI, 2025)
